Experimental data reported in paper PMC6719172, “Inhibition of CpLIP2 Lipase Hydrolytic Activity by Four Flavonols (Galangin, Kaempferol, Quercetin, Myricetin) Compared to Orlistat and Their Binding Mechanisms Studied by Quenching of Fluorescence” (Molecules, 2019).
Converted amounts (≈) assume the structure as drawn.

Tests used:
[1] = target: CpLIP2 lipase (Candida parapsilosis, UniProt Q8NIN8); assay: Quenching of CpLIP2 intrinsic tryptophan fluorescence by flavonols (Stern–Volmer, Lehrer, van't Hoff analysis); type: binding; settings: for KSV (Stern–Volmer quenching constant): CpLIP2 2.5 µM, pH 7.0, flavonol 2.5–25 µM (GAL 2.5–17.5 µM); for Kq (bimolecular quenching constant): Kq = KSV/τ0, τ0 1.59 ns; for KSV (accessible), Stern–Volmer quenching constant of the exposed W residues / fa (fraction of accessible W residues to the quencher): Lehrer equation; for ΔG (free energy change): ΔG = ΔH − TΔS; for Kd: Kd (dissociation constant); for order of magnitude of Kq: all temperatures of Table 1; for ΔS (entropy changes): van't Hoff plot, 298–328 K
Source text: The fluorescence quenching spectra of CpLIP2 lipase submitted to increasing concentrations of GAL, KAE, QUE and MYR are shown in Figure 3. A remarkable quenching of the CpLIP2 fluorescence emission was observed. […] The fluorescence quenching is usually described by the linear Stern–Volmer Equations (2) and (3):(2) F0/F = 1 + Ksv [Q] = 1 + Kqτ0 [Q] (3) Kq=Ksv/τ0 where F0 and F are the intrinsic fluorescence intensities of CpLIP2 lipase (fluorophore) in absence or presence of quencher (flavonol), respectively. Kq is the bimolecular quenching constant, τ0 is the lifetime of the fluorophore in the absence of the quencher, [Q] is the concentration of the quencher, and KSV is the Stern–Volmer quenching constant.
The mechanism of quenching, occurring between CpLIP2 lipase and flavonols, was characterized by determining the values of Kq and the thermodynamic parameters by varying the temperature. […] In both cases, the bimolecular quenching constant Kq can be calculated by the ratio between KSV and τ0, itself determined at 1.59 ns for Human Pancreatic Lipase.
The inaccessible or buried residues are responsible for the remaining fluorescence, which is probably independent of the quencher concentration. […] An up-down curvature towards the x-axis has been shown for the four flavonols (Figure 4), indicating the presence of two populations of fluorophores, part of which would not be accessible. That means that some W residues are buried inside the lipase structure and that other residues are exposed to the solvent. Therefore, data were analyzed through the Lehrer equation, also known as the modified (or non-linear) Stern–Volmer Equation (4):(4) F0/ F0−F = 1/ fa Ksv 1/ [Q] +1/ fa
For static quenching, the equilibrium between free and bound CpLIP2 lipase, when the ligand molecules bind independently to equivalent sites of macromolecules, can be described by the following Equation (5):(5) log10F0−F/F=nlog10[Q]+log10Ka where Ka is the binding constant and n the number of binding sites per CpLIP2 molecule.
The results were determined for all flavonols tested at different temperatures from the plots of log10 F0 − F/F versus log10 [Q] and listed in Table 2. The plots show a linear relationship from which the slope equal to n and intercept on y-axis equal to log10 Ka. For the four flavonols, the Ka values increased when the temperatures increased. In addition, the n values were less than 1.0 in all cases and increased according to the temperature. […] Values of the dissociation constant of complexes were deduced from the Stern–Volmer Equation (6) and (7), for which Kd is expressed as the inverse of fa Ksv product. (6) F0/ F0−F= Kd 1/ [Q] +1 (7) Kd= 1/fa Ksv
Thermodynamic parameters were calculated to determine the type of binding forces that contribute in the CpLIP2 lipase–flavonol interactions. […] Both the enthalpy (ΔH) and entropy changes (ΔS) can be estimated from the following van′t Hoff Equation (8):(8) Ln Ka = − ΔH /RT + ΔS /R
The values of Gibbs binding free energy change (ΔG) are calculated from the following Equation (9):(9) ΔG= ΔH − TΔS
To fill up the volume of 300 µL by well, 190 µL of sodium phosphate buffer solution (75 mM, pH 7.0) was added to each well to obtain final concentration at 50 mM. Then, 100 µL of ethanol absolute–water ultrapure (2:8, v/v) solution was added to obtain a final amount of ethanol […] in the well of 300 µL. […] The final concentration of ethanol during the experiments never exceeded 0.07% (v/v). The last step was to add 10 µL of lipase after to have optimized the final concentration of CpLIP2 equal to 2.5 µM for all our assays, giving the optimal fluorescence intensity for all measurements. The measurement of intrinsic fluorescence started after mechanical shaking for 30 s inside the multi-plate reader. […]

[2] = target: pancreatic lipase (PL); parameters: method as in PMID 23363068; settings: in vitro assay; cited from earlier work
[3] = target: C. rugosa commercial lipase; parameters: method as in doi:10.1016/j.molcatb.2006.02.012; settings: cited from earlier work
[4] = parameters: method as in PMID 24601218, doi:10.1021/ja00090a032; settings: cited from earlier work

CpLIP2 lipase, sequence (Q8NIN8 entry or part of it): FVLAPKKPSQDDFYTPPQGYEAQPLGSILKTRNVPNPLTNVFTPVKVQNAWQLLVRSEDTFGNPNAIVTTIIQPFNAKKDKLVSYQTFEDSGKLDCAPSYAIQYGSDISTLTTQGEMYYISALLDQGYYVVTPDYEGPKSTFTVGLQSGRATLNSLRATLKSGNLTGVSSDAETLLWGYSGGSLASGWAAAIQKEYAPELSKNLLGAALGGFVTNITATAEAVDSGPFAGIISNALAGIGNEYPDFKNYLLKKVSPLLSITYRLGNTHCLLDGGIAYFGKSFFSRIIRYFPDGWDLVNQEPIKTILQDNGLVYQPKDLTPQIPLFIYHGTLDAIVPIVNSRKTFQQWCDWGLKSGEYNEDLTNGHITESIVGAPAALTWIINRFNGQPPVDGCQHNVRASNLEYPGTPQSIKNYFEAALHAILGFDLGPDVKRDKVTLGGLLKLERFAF

Structure (SMILES)	Ka (association constant) ([1]; 298 K)	n (number of binding sites) ([1]; 298 K)	KSV (Stern–Volmer quenching constant) ([1]; 298 K)	Kq (bimolecular quenching constant) ([1]; 298 K) [M⁻¹ s⁻¹]	KSV (accessible), Stern–Volmer quenching constant of the exposed W residues ([1]; 298 K) [L/mol]	fa (fraction of accessible W residues to the quencher) ([1]; 298 K)	ΔG (free energy change) ([1]; 298 K) [kcal/mol]	Ka (association constant) ([1]; 308 K) [L/mol]	n (number of binding sites) ([1]; 308 K)	KSV (Stern–Volmer quenching constant) ([1]; 308 K)	Kq (bimolecular quenching constant) ([1]; 308 K) [M⁻¹ s⁻¹]	KSV (accessible), Stern–Volmer quenching constant of the exposed W residues ([1]; 308 K) [L/mol]	fa (fraction of accessible W residues to the quencher) ([1]; 308 K)	ΔG (free energy change) ([1]; 308 K) [kcal/mol]	Ka (association constant) ([1]; 318 K) [L/mol]	n (number of binding sites) ([1]; 318 K)	KSV (Stern–Volmer quenching constant) ([1]; 318 K)	Kq (bimolecular quenching constant) ([1]; 318 K) [M⁻¹ s⁻¹]	KSV (accessible), Stern–Volmer quenching constant of the exposed W residues ([1]; 318 K) [L/mol]	fa (fraction of accessible W residues to the quencher) ([1]; 318 K)	also measured
O=c1c(O)c(-c2ccccc2)oc2cc(O)cc(O)c12 [GAL, galangin]	323 ± 8 L/mol	0.58 ± 0.18	2.9 ± 0.1 × 10^4 L·mol^−1	1.8e+13	360000	0.37	-20.2	502 ± 10	0.63 ± 0.21	2.4 ± 0.9 × 10^4 L·mol^−1	1.5e+13	360000	0.34	-20.9	616 ± 10	0.66 ± 0.21	2.1 ± 0.8 × 10^4 L·mol^−1	1.3e+13	290000	0.33	ΔG (free energy change) ([1]; 318 K): -21.6 kcal/mol; n (number of binding sites) ([1]; 328 K): 0.66 ± 0.04; KSV (Stern–Volmer quenching constant) ([1]; 328 K): 1.5 ± 0.6 × 10^4 L·mol^−1; Kq (bimolecular quenching constant) ([1]; 328 K): 1e+13 M⁻¹ s⁻¹; KSV (accessible), Stern–Volmer quenching constant of the exposed W residues ([1]; 328 K): 420000 L/mol; fa (fraction of accessible W residues to the quencher) ([1]; 328 K): 0.25; ΔG (free energy change) ([1]; 328 K): -22.3 kcal/mol; Kd ([1]; 298 K): 8 ± 3 µM; Kd ([1]; 308 K): 8 ± 4 µM; Kd ([1]; 318 K): 11 ± 6 µM; Kd ([1]; 328 K): 10 ± 6 µM; order of magnitude of Kq [1]: ~10^13 L mol^−1 s^−1; ΔS (entropy changes) [1]: 0.28 kJ·mol^−1·K^−1; IC50 [2]: 48.2 mg/mL (≈ 178 mM)
O=c1c(O)c(-c2ccc(O)cc2)oc2cc(O)cc(O)c12 [KAE, kaempferol]	458 ± 2. L·mol^−1	0.63 ± 0.07	2.1 ± 0.2 × 10^4 L·mol^−1	1.3e+13	140000	0.45	-9.39	476 ± 4	0.63 ± 0.07	1.9 ± 0.7 × 10^4 L·mol^−1	1.2e+13	170000	0.43	-9.7	862 ± 3	0.69 ± 0.09	1.8 ± 0.7 × 10^4 L·mol^−1	1.1e+13	150000	0.42	ΔG (free energy change) ([1]; 318 K): -10 kcal/mol; Ka (association constant) ([1]; 328 K): 1290 ± 2 L/mol; n (number of binding sites) ([1]; 328 K): 0.75 ± 0.07; KSV (Stern–Volmer quenching constant) ([1]; 328 K): 1.6 ± 0.6 × 10^4 L·mol^−1; Kq (bimolecular quenching constant) ([1]; 328 K): 1e+13 M⁻¹ s⁻¹; KSV (accessible), Stern–Volmer quenching constant of the exposed W residues ([1]; 328 K): 150000 L/mol; fa (fraction of accessible W residues to the quencher) ([1]; 328 K): 0.34; ΔG (free energy change) ([1]; 328 K): -10.3 kcal/mol; Kd ([1]; 298 K): 16 ± 3 µM; Kd ([1]; 308 K): 14 ± 5 µM; Kd ([1]; 318 K): 16 ± 7 µM; Kd ([1]; 328 K): 19 ± 9 µM; order of magnitude of Kq [1]: ~10^13 L mol^−1 s^−1; ΔS (entropy changes) [1]: 0.13 kJ·mol^−1·K^−1; IC50 [3]: 6300 µM; pKa1 [4]: 8.2
